# “Also recorded” adds a separate entry of the source.
# How the values were obtained:
# human endothelial cells = experiment: EC-PBMC co-culture assay, chemokines quantified by cytometric bead arrays; assay type: cell-based; details: for EC activation of octahydro-1,6-naphthyridin-4-one analogs (percent induction relative to IFNγ): focused library of 96 analogs, initial test (FIG. 6A, 6B)
# Procedure: FIGS. 9A-9C show a further embodiment of the invention biological platform for the detection of activated endothelium. (A) Primary endothelial cells were seeded to confluence in a 96 well format and activated by IFNγ (10 ng/ml). After 5 hours, IFNγ was removed, wells were washed, and then primary human peripheral blood mononuclear cells (PBMC) were added at a ratio of 3:1 (PBMC:EC). 20-24 hours later, supernatants were removed and chemokines were quantified by cytometric bead arrays. (B) MIP1β production, but not MIP1α or IL8 levels, reliably detects endothelium activated by IFNγ. Chemokines produced in co-culture conditions with quiescent vs. activated EC; data represent the results from n=7 (MIP1α and MIP1β) and n=6 (IL8) independent experiments. (C) Chemical library screen for compounds that activate human endothelium. A 642 compound library was added following the same method as in A and B. Controls included DMSO and IFNγ on each plate. Supernatants were measured for chemokines by cytometric bead arrays.
# Activation of the endothelium is intricately linked to innate immunity. […] Therefore we hypothesized that compounds that “activate” the endothelium could be identified indirectly—endothelium encountering activating compounds would gain the capacity to trigger chemokine production by monocytes. To test this hypothesis, we designed an EC-monocyte co-culture system amenable to high-throughput compound screening (FIG. 9A). […] Subsequently, EC were treated with DMSO (vehicle control), IFNγ (EC-activation control), and a collection of 642 compounds (final concentration, […]) (FIG. 9C). Of the 642 compounds, 37 (5.8%) promoted MIP1β production (FIG. 5A).
# HUVEC were grown to 80-90% confluency in T150 flasks (Corning). On the day of experiments, HUVEC were harvested and plated at a confluent density in 96 well plates; these were either half or full volume plates, requiring 2.5-5×10^4 EC per well, respectively, in complete EBM-2 media (Lonza). After adherence for 2-3 hours, IFNγ (10 ng/ml), DMSO, or compound library (final concentration, […]) was added in incomplete EBM-2 media (Lonza). After 5 hours, stimuli were removed and cells were gently washed twice with RPMI (Invitrogen), followed by addition of 7.5-10×10^4 human PBMC in 10% FCS. For cytokine analysis, […] was removed at 24 hours for CBA analysis. The biological effects observed were not attributable to either LPS contamination, nor to cellular toxicity, as determined by flow cytometric analysis and 3-(4,5-dimethylhiazol-2-yl)-2,5-diphenyl tetrazolium bromide (MTT) assay.
# […] of supernatant from EC alone, PBMC alone, or co-culture conditions was collected for CBA analysis for IL8, MIP1α, and MIP1β. CBA was performed as per the manufacturer's recommendations (Becton Dickinson). Standard curves and all samples were acquired on a FacsCalibur flow cytometer and data was analyzed using FloJo software.
# HUVEC = experiment: Transcriptome profiling (microarray) of treated EC, Ingenuity Pathway Analysis; assay type: cell-based, human; details: 10 μM, 5 hours; for gene probes induced in comparison to vehicle control: fold change >1.25, p-value <0.05
# Procedure: HUVEC were grown as described above, and then plated at 1×10^6 in 6 well plates in complete EBM-2. […] After 5 hours, media was removed and RNA was extracted using Trizol (Invitrogen), followed by RNeasy Minelut Cleanup Kit (Qiagen). RNA was taken to the UCLA Microarray Core Center where it was processed using the Human Genome Affymetrix U133 Plus 2.0 Array. Microarray data was analyzed using dChip software (version Nov. 18, 2007) from the Cheng Li Lab at http://biosun1.harvard.edu/complab/dchip. For statistical analysis using dChip software, only gene probes that were minimally present in two of the three replicates were used, and parameters for significance were set at fold change >1.25, p-value <0.05. Total number of probes present for active analogue (D10): 30,228. […] Unsupervised dendrograms were created using dChip software. Genes with known function in immune regulation were selected based on published databases and gene functions identified by Gene Ontology or OMIM; dendrogram was created using dChip software.
# Experimental results were compared using student t-tests; results were considered significant if p-value was <0.05. Canonical network analysis for all expressed probes in D10 and E2 datasets was performed by using Ingenuity Pathway Analysis software (version 6.0; Ingenuity Systems).
# MIP1β = experiment: Intracellular flow cytometry of EC-PBMC co-cultures (CD14, MIP1β); assay type: cell-based, human; details: PBMC added to activated EC (FIG. 5D)
# Procedure: (§1) HUVEC were stimulated with IFNγ, DMSO, or compounds of interest (10 μM) for 5 hours. Stimuli were removed and cells were gently washed and media was replaced with 10% FCS for 24 hours. Cells were stained with anti-ICAM1 and anti-E-selectin, or appropriate isotype antibodies. For intracellular chemokine staining, stimulations of HUVEC were carried out as mentioned above with IFNγ, DMSO and compound of interest. After 8 hours of PBMC and HUVEC co-culture incubation, Golgi Plug (Becton Dickinson) was added to the culture and incubation carried out for an additional 16 hours. After the incubation cells were fixed, permeabilized and stained with anti-CD14 and anti-MIP1b or appropriate isotype controls. Samples were then analyzed with a FacsCalibur flow cytometer and subsequent data analysis was performed using FloJo software.
# E-selectin = E-selectin expression on EC by flow cytometric analysis; assay type: cell-based, human; details: in comparison to vehicle control (FIG. 8C)
# Procedure: as §1
Compound,"EC activation of octahydro-1,6-naphthyridin-4-one analogs (percent induction relative to IFNγ) (human endothelial cells)",other results
CCc1ccc([C@@H]2C[C@H]3[C@@H](CN2S(=O)(=O)c2ccc(C)cc2)C(=O)C[C@@H](c2ccc(OC)cc2)N3S(=O)(=O)c2ccccc2)cc1 [E2],some activity; also recorded: inactive,"EC activation, confirmatory studies (human endothelial cells; validation of analogs, FIG. 6C, two independent experiments in triplicate wells): relatively inactive; gene probes induced in comparison to vehicle control (HUVEC; EC): 49 gene probes; networks related to immune regulation activated (HUVEC; induced genes of EC): did not activate any networks related to immune regulation"
interferon gamma [IFNγ],–,"dominant producers of MIP1β in co-culture (MIP1β): CD14+ monocytes; MIP1α production in co-culture (human endothelial cells; treated EC co-cultured with PBMC (FIG. 10B)): comparable levels; IL8 production from monocytes in co-culture (human endothelial cells; treated EC co-cultured with PBMC, in comparison to DMSO (FIG. 10A)): inhibited"
COc1ccc([C@@H]2CC(=O)[C@@H]3CN(S(=O)(=O)c4ccc(C)cc4)[C@H](c4ccc(C)cc4)C[C@@H]3N2S(=O)(=O)c2ccccc2)cc1 [D9],did not exhibit EC-activation; also recorded: inactive,–
Cc1ccc(S(=O)(=O)N2[C@H](c3ccccc3)CC(=O)[C@@H]3CN(S(C)(=O)=O)[C@H](c4ccccc4)C[C@@H]32)cc1 [2B2],lost their activity; also recorded: inactive,–
CCc1ccc([C@@H]2C[C@H]3[C@@H](CN2S(=O)(=O)c2ccc(C)cc2)C(=O)C[C@@H](c2ccc(Cl)cc2)N3S(=O)(=O)c2ccc(C)cc2)cc1 [D11],active,–
Cc1ccc([C@@H]2C[C@H]3[C@@H](CN2S(=O)(=O)c2ccc(C)cc2)C(=O)C[C@@H](c2ccc(C)cc2)N3S(=O)(=O)c2ccc(C)cc2)cc1 [D6],active,–
COc1ccc([C@@H]2CC(=O)[C@@H]3CN(S(=O)(=O)c4ccc(Cl)cc4)[C@H](c4ccc(C)cc4)C[C@@H]3N2S(=O)(=O)c2ccccc2)cc1 [F7],did not exhibit EC-activation; also recorded: inactive,–
COc1ccc([C@@H]2CC(=O)[C@@H]3CN(S(=O)(=O)c4ccc(C)cc4)[C@H](c4ccccc4)C[C@@H]3N2S(=O)(=O)c2ccccc2)cc1 [D5],did not exhibit EC-activation; also recorded: inactive,–
COc1ccc([C@@H]2C[C@H]3[C@@H](CN2S(=O)(=O)c2ccccc2)C(=O)C[C@@H](c2ccc(C)cc2)N3S(=O)(=O)c2ccc(C)cc2)cc1 [C9],active,–
CCOc1cc(-c2ccccc2)nc2c1CN(S(=O)(=O)c1ccc(C)cc1)[C@H](c1cccc(Cl)c1)C2 [G9],inactive,–
CCc1ccc([C@@H]2C[C@H]3[C@@H](CN2S(=O)(=O)c2ccc(C)cc2)C(=O)C[C@@H](c2ccc(CC)cc2)N3S(=O)(=O)c2ccc(C)cc2)cc1 [D10],active,"E-selectin expression levels (protein) (E-selectin): markedly enhanced; gene probes induced in comparison to vehicle control (HUVEC; EC): 201 gene probes; canonical pathways engaged (Ingenuity Pathway Analysis) (HUVEC; induced genes of EC): 32 canonical pathways; E-selectin gene induction (HUVEC; microarray, EC): uniquely induced"
COc1ccc([C@@H]2C[C@H]3[C@@H](CN2S(=O)(=O)c2ccccc2)C(=O)C[C@@H](c2ccc(OC)cc2)N3S(=O)(=O)c2ccccc2)cc1 [F10],did not exhibit EC-activation; also recorded: inactive,–
Cc1ccc(S(=O)(=O)N2C[C@H]3[C@@H](O)C[C@@H](c4ccccc4)N(S(=O)(=O)c4ccc(C)cc4)[C@H]3C[C@H]2c2cccc(Cl)c2)cc1 [2B6],active,–
Cc1ccc(S(=O)(=O)N2CC[C@H]3[C@@H](C2)C(=O)C[C@@H](c2ccccc2)N3S(=O)(=O)c2ccc(C)cc2)cc1 [H6],did not affect the naphthyridinone's EC-activation; also recorded: active,–
CCO[C@H]1C[C@@H](c2ccccc2)N(S(=O)(=O)c2ccc(C)cc2)[C@H]2C[C@@H](c3cccc(Cl)c3)N(S(=O)(=O)c3ccc(C)cc3)C[C@@H]12 [2B7],active,–
Cc1ccc([C@@H]2C[C@H]3[C@@H](CN2S(=O)(=O)c2ccccc2)C(=O)C[C@@H](c2ccccc2)N3S(=O)(=O)c2ccc(C)cc2)cc1 [C8],active,–
Cc1ccc(S(=O)(=O)N2C[C@H]3C(=O)C[C@@H](c4ccccc4)N(S(C)(=O)=O)[C@H]3C[C@H]2c2ccccc2)cc1 [H11],lost their activity; also recorded: inactive,–
Cc1ccc(S(=O)(=O)N2C[C@H]3C(=O)C[C@@H](c4ccccc4)N(S(=O)(=O)c4ccc(C)cc4)[C@H]3C[C@H]2c2ccccc2F)cc1 [E3],active,–
COc1ccc([C@@H]2CC(=O)[C@@H]3CN(S(=O)(=O)c4ccc(C)cc4)[C@H](c4ccccc4F)C[C@@H]3N2S(=O)(=O)c2ccccc2)cc1 [E8],did not exhibit EC-activation; also recorded: inactive,–
